Laboratory results from ChEMBL document CHEMBL4011590, “Structure-activity relationship studies on 3,5-dinitrophenyl tetrazoles as antitubercular agents” (Eur J Med Chem, 2017).
Converted amounts (≈) assume the structure as drawn.

Tests used:
[1] = test system: Mycobacterium tuberculosis; assay: Antimycobacterial activity against Mycobacterium tuberculosis H37Rv CNCTC My 331/88 after 14 days by micromethod; type: functional; details: H37Rv CNCTC My 331/88, 336 h
[2] = test system: Mycobacterium tuberculosis; assay: Antimycobacterial activity against Mycobacterium tuberculosis H37Rv CNCTC My 331/88 after 21 days by micromethod; type: functional; details: H37Rv CNCTC My 331/88, 504 h
Mycobacterium avium [3] = assay: Antimycobacterial activity against Mycobacterium avium CNCTC My 330/80 after 14 days by micromethod; type: functional; details: CNCTC My 330/80, 336 h
Mycobacterium avium [4] = assay: Antimycobacterial activity against Mycobacterium avium CNCTC My 330/80 after 21 days by micromethod; type: functional; details: CNCTC My 330/80, 504 h
Mycobacterium kansasii [5] = assay: Antimycobacterial activity against Mycobacterium kansasii CNCTC My 235/80 after 7 days by micromethod; type: functional; details: CNCTC My 235/80, 168 h
Mycobacterium kansasii [6] = assay: Antimycobacterial activity against Mycobacterium kansasii CNCTC My 235/80 after 14 days by micromethod; type: functional; details: CNCTC My 235/80, 336 h
Mycobacterium kansasii [7] = assay: Antimycobacterial activity against Mycobacterium kansasii CNCTC My 235/80 after 21 days by micromethod; type: functional; details: CNCTC My 235/80, 504 h
Mycobacterium kansasii [8] = assay: Antimycobacterial activity against Mycobacterium kansasii isolate 6509/96 after 7 days by micromethod; type: functional; details: isolate 6509/96, 168 h
Mycobacterium kansasii [9] = assay: Antimycobacterial activity against Mycobacterium kansasii isolate 6509/96 after 14 days by micromethod; type: functional; details: isolate 6509/96, 336 h
Mycobacterium kansasii [10] = assay: Antimycobacterial activity against Mycobacterium kansasii isolate 6509/96 after 21 days by micromethod; type: functional; details: isolate 6509/96, 504 h
CHO-K1 = assay: Cytotoxicity against CHOK1 cells after 24 hrs by MTT assay; type: cell-based; details: Cricetulus griseus, CHO-K1, 24 h
HaCaT = assay: Cytotoxicity against human HaCaT cells after 72 hrs by neutral red uptake assay; type: cell-based
Staphylococcus aureus [11] = assay: Antibacterial activity against Staphylococcus aureus ATCC 6538 after 24 hrs by broth microdilution method; type: functional; details: ATCC 6538, 24 h
Staphylococcus aureus [12] = assay: Antibacterial activity against Staphylococcus aureus ATCC 6538 after 48 hrs by broth microdilution method; type: functional; details: ATCC 6538, 48 h
Staphylococcus aureus [13] = assay: Antibacterial activity against methicillin-resistant Staphylococcus aureus HK5996/08 after 24 hrs by broth microdilution method; type: functional; details: HK5996/08, 24 h
Staphylococcus aureus [14] = assay: Antibacterial activity against methicillin-resistant Staphylococcus aureus HK5996/08 after 48 hrs by broth microdilution method; type: functional; details: HK5996/08, 48 h
Enterococcus sp. [15] = assay: Antibacterial activity against Enterococcus sp. HK14365/08 after 24 hrs by broth microdilution method; type: functional; details: HK14365/08, 24 h
Enterococcus sp. [16] = assay: Antibacterial activity against Enterococcus sp. HK14365/08 after 48 hrs by broth microdilution method; type: functional; details: HK14365/08, 48 h
Escherichia coli [17] = assay: Antibacterial activity against Escherichia coli ATCC 8739 after 24 hrs by broth microdilution method; type: functional; details: ATCC 8739, 24 h
Escherichia coli [18] = assay: Antibacterial activity against Escherichia coli ATCC 8739 after 48 hrs by broth microdilution method; type: functional; details: ATCC 8739, 48 h
Klebsiella pneumoniae [19] = assay: Antibacterial activity against Klebsiella pneumoniae HK11750/08 after 24 hrs by broth microdilution method; type: functional; details: HK11750/08, 24 h
Klebsiella pneumoniae [20] = assay: Antibacterial activity against Klebsiella pneumoniae HK11750/08 after 48 hrs by broth microdilution method; type: functional; details: HK11750/08, 48 h
Klebsiella pneumoniae [21] = assay: Antibacterial activity against extended spectrum beta-lactamase producing Klebsiella pneumoniae HK14368/08 after 24 hrs by broth microdilution method; type: functional; details: HK14368/08, 24 h
Klebsiella pneumoniae [22] = assay: Antibacterial activity against extended spectrum beta-lactamase producing Klebsiella pneumoniae HK14368/08 after 48 hrs by broth microdilution method; type: functional; details: HK14368/08, 48 h
Pseudomonas aeruginosa [23] = assay: Antibacterial activity against Pseudomonas aeruginosa ATCC 9027 after 24 hrs by broth microdilution method; type: functional; details: ATCC 9027, 24 h
Pseudomonas aeruginosa [24] = assay: Antibacterial activity against Pseudomonas aeruginosa ATCC 9027 after 48 hrs by broth microdilution method; type: functional; details: ATCC 9027, 48 h
Candida albicans [25] = assay: Antifungal activity against Candida albicans ATCC 44859 after 24 hrs by broth microdilution method; type: functional; details: ATCC 44859, 24 h
Candida albicans [26] = assay: Antifungal activity against Candida albicans ATCC 44859 after 48 hrs by broth microdilution method; type: functional; details: ATCC 44859, 48 h
Candida tropicalis [27] = assay: Antifungal activity against Candida tropicalis 156 after 24 hrs by broth microdilution method; type: functional; details: Candida tropicalis, 156, 24 h
Candida tropicalis [28] = assay: Antifungal activity against Candida tropicalis 156 after 48 hrs by broth microdilution method; type: functional; details: Candida tropicalis, 156, 48 h
Pichia kudriavzevii [29] = assay: Antifungal activity against Candida krusei E28 after 24 hrs by broth microdilution method; type: functional; details: E28, 24 h
Pichia kudriavzevii [30] = assay: Antifungal activity against Candida krusei E28 after 48 hrs by broth microdilution method; type: functional; details: E28, 48 h
Nakaseomyces glabratus [31] = assay: Antifungal activity against Candida glabrata 20/I after 24 hrs by broth microdilution method; type: functional
Nakaseomyces glabratus [32] = assay: Antifungal activity against Candida glabrata 20/I after 48 hrs by broth microdilution method; type: functional
Trichosporon asahii [33] = assay: Antifungal activity against Trichosporon asahii 1188 after 24 hrs by broth microdilution method; type: functional; details: Trichosporon asahii, 1188, 24 h
Trichosporon asahii [34] = assay: Antifungal activity against Trichosporon asahii 1188 after 48 hrs by broth microdilution method; type: functional; details: Trichosporon asahii, 1188, 48 h
Aspergillus fumigatus [35] = assay: Antifungal activity against Aspergillus fumigatus 231 after 24 hrs by broth microdilution method; type: functional; details: Aspergillus fumigatus, 231, 24 h
Aspergillus fumigatus [36] = assay: Antifungal activity against Aspergillus fumigatus 231 after 48 hrs by broth microdilution method; type: functional; details: Aspergillus fumigatus, 231, 48 h
Lichtheimia corymbifera [37] = assay: Antifungal activity against Absidia corymbifera 272 after 24 hrs by broth microdilution method; type: functional; details: Lichtheimia corymbifera, 272, 24 h
Lichtheimia corymbifera [38] = assay: Antifungal activity against Absidia corymbifera 272 after 48 hrs by broth microdilution method; type: functional; details: Lichtheimia corymbifera, 272, 48 h
[39] = test system: Trichophyton mentagrophytes; assay: Antifungal activity against Trichophyton mentagrophytes 445 after 72 hrs by broth microdilution method; type: functional; details: Trichophyton mentagrophytes, 445, 72 h
[40] = test system: Trichophyton mentagrophytes; assay: Antifungal activity against Trichophyton mentagrophytes 445 after 120 hrs by broth microdilution method; type: functional; details: Trichophyton mentagrophytes, 445, 120 h
[41] = Selectivity index, ratio of IC50 for CHOK1 cells to MIC for Mycobacterium tuberculosis H37Rv CNCTC My 331/88; type: toxicity; details: hamster, CHO-K1 cells; read-out: Selectivity Index
[42] = Selectivity index, ratio of IC50 for mouse 3T3 cells to MIC for Mycobacterium tuberculosis H37Rv CNCTC My 331/88; type: toxicity; details: read-out: Selectivity Index
[43] = Selectivity index, ratio of IC50 for human HaCaT cells to MIC for Mycobacterium tuberculosis H37Rv CNCTC My 331/88; type: toxicity; details: read-out: Selectivity Index

COc1ccc(Cn2nnc(-c3cc([N+](=O)[O-])cc([N+](=O)[O-])c3)n2)cc1
MIC99 [1]: 0.03 µM (≈ 0.0107 µg/mL) | MIC99 [2]: 0.03 µM (≈ 0.0107 µg/mL) | MIC99 (Mycobacterium avium [3]): 4 µM (≈ 1.43 µg/mL) | MIC99 (Mycobacterium avium [4]): 8 µM (≈ 2.85 µg/mL) | MIC99 (Mycobacterium kansasii [5]): 0.125 µM (≈ 0.0445 µg/mL) | MIC99 (Mycobacterium kansasii [6]): 0.125 µM (≈ 0.0445 µg/mL) | MIC99 (Mycobacterium kansasii [7]): 0.25 µM (≈ 0.0891 µg/mL) | MIC99 (Mycobacterium kansasii [8]): 0.06 µM (≈ 0.0214 µg/mL) | MIC99 (Mycobacterium kansasii [9]): 0.06 µM (≈ 0.0214 µg/mL) | MIC99 (Mycobacterium kansasii [10]): 0.125 µM (≈ 0.0445 µg/mL) | IC50 (CHO-K1): 96 µM | IC50 (HaCaT): > 100 µM | MIC (Staphylococcus aureus [11]): > 250 µM | MIC (Staphylococcus aureus [12]): > 250 µM | MIC (Staphylococcus aureus [13]): 250 µM (≈ 89.1 µg/mL) | MIC (Staphylococcus aureus [14]): 250 µM (≈ 89.1 µg/mL) | MIC (Enterococcus sp. [15]): > 500 µM | MIC (Enterococcus sp. [16]): > 500 µM | MIC (Escherichia coli [17]): > 500 µM | MIC (Escherichia coli [18]): > 500 µM | MIC (Klebsiella pneumoniae [19]): > 500 µM | MIC (Klebsiella pneumoniae [20]): > 500 µM | MIC (Klebsiella pneumoniae [21]): > 500 µM | MIC (Klebsiella pneumoniae [22]): > 500 µM | MIC (Pseudomonas aeruginosa [23]): > 500 µM | MIC (Pseudomonas aeruginosa [24]): > 500 µM | MIC (Candida albicans [25]): > 500 µM | MIC (Candida albicans [26]): > 500 µM | MIC (Candida tropicalis [27]): > 500 µM | MIC (Candida tropicalis [28]): > 500 µM | MIC (Pichia kudriavzevii [29]): > 500 µM | MIC (Pichia kudriavzevii [30]): > 500 µM | MIC (Nakaseomyces glabratus [31]): > 500 µM | MIC (Nakaseomyces glabratus [32]): > 500 µM | MIC (Trichosporon asahii [33]): > 500 µM | MIC (Trichosporon asahii [34]): > 500 µM | MIC (Aspergillus fumigatus [35]): > 500 µM | MIC (Aspergillus fumigatus [36]): > 500 µM | MIC (Lichtheimia corymbifera [37]): > 500 µM | MIC (Lichtheimia corymbifera [38]): > 500 µM | MIC [39]: > 500 µM | MIC [40]: > 500 µM | selectivity ratio [41]: > 1000 | selectivity ratio [42]: > 1000 | selectivity ratio [43]: > 1000
